Experimental data from patent publication US20150038674A1, “USE OF GLP-2 ANALOGUES IN PULMONARY DISEASES FOR THERAPEUTIC PURPOSE” (priority 2013, published 2015).
Marks after values point to notes of the source that are not given here. Starred links: 1 amine or outer side, 2 acyl side, 3 side chain; linkers in the order of their positions; H or OH if unused. Positions of bridges follow the written chain, without caps; N, C: chain ends. Non-standard residues stand in square brackets, D forms with d. Residues, ends and D or L forms follow the SMILES beside them. Chains are numbered I, II in the order given. Actinocin(9to1) = Cc1c2oc3c(C)ccc(C(=O)[*:1])c3nc-2c(C(=O)[*:2])c(N)c1=O; NMeV = CN[C@H](C(=O)O)C(C)C; Sar = CNCC(=O)O

Tests used:
[1] = test system: active caspase-3; test: Active caspase-3 immunoreactivity (labeling index) in alveolar area; type: in vivo, mouse; settings: male BALB/c mice, active caspase-3 immunoreactive cells, teduglutide 200 μg/kg s.c. every 12 hours for 10 days, TNF-alpha 15 μg/kg i.p., Act D 800 μg/kg i.p.
Procedure: (§1) In this study, 8-10 months male BALB/c mice were used. Mice were divided into 6 groups: • Group I (Control group): Mice injected with 0.1% dimethylsulfoxide (DMSO) and phosphate buffered saline (PBS, pH 7.4) via intraperitoneal way. • Group II: Mice injected with 15 μg/kg TNF-alpha (dissolved in PBS) with single dose via intraperitoneal way. • Group III: Mice injected with 800 μg/kg Act D (dissolved in DMSO) with single dose via intraperitoneal way. • Group IV: The mice given with TNF-alpha 2 minutes after Act D is administered in doses and mode of administrations above. • Group V: The mice given with 200 μg/kg teduglutide (dissolved in PBS) for 10 days uninterruptedly in every 12 hours via subcutaneous injection. • Group VI: TNF-alpha was injected to mice to which teduglutide was administered for 10 days as mentioned above, 2 minutes after Act D was administered in 11th day in above doses and mode of administration.
(§2) The mice in Group V were cut with cervical dislocation 16.5 hours after the last administration, and the mice in other groups were cut 4.5 hours after the last administration, and the lung samples were taken for microscopic and biochemical analysis.
For the identification of apoptosis in the tissue, as another way, active caspase-3 immunoreactivity was tested. For this purpose, streptavidin-biotin-peroxidase immune method was used. Sections of left lung fixed with neutral formalin were treated with 0.3% triton X-100 for 10 minutes after dewaxing and rehydratation. Following this process, they heated in 10 mM citrate buffer (pH 6.0) for 15 min in a microwave oven. The sections were incubated for 10 minutes with 3% H2O2 for blocking of endogenous peroxidase activity. The next steps were performed according to the instructions in Histostain Plus Broad Spectrum Kit (Invitrogen). The sections were incubated with polyclonal rabbit active caspase 3 antibody (1:50 in PBS, Millipore) for 1 hour at room temperature.
Immunoreaction was developed with 3-amino-9-ethylcarbazole. The sections were stained with Mayer's hematoxilin following immunostaining. PBS or nonspecific rabbit IgG primary antibody were used as negative controls.
Quantitative analysis of immunoreactive cells labeled with caspase-3 antibody was made with light microscope at ×400 magnification. For the immunoreactive cell count, 5 randomly selected fields of alveolar areas without bronchioles were examined in the lung sections of each mouse. The labeling index for caspase-3 was calculated as a percentage of immunoreactive cells in the total number of cells counted per section.

[2] = test system: catalase (CAT); test: Catalase activity in lung tissue; type: in vivo, mouse; settings: male BALB/c mice, Mean ± SD, same dosing groups
[3] = test system: superoxide dismutase (SOD); test: Superoxide dismutase activity in lung tissue; type: in vivo, mouse; settings: male BALB/c mice, Mean ± SD, same dosing groups
[4] = test system: glutathione peroxidase (GPx); test: Glutathione peroxidase activity in lung tissue; type: in vivo, mouse; settings: male BALB/c mice, Mean ± SD, same dosing groups
[5] = test system: Na^+K^+ATPase; test: Na+K+ATPase activity in lung tissue; type: in vivo, mouse; settings: male BALB/c mice, Mean ± SD, same dosing groups
[6] = test system: tissue factor (TF); test: Tissue factor activity in lung tissue (Quick's one-stage method); type: in vivo, mouse; settings: male BALB/c mice, Mean ± SD, Quick's one-stage method using normal plasma, same dosing groups
[7] = test system: alveolar wall of mice lung; test: Hematoxylin-eosin histology of lung sections (alveolar wall damage); type: in vivo, mouse; settings: HE-stained lung sections, male BALB/c mice; same dosing groups
Procedure: TNF-alpha and/or Act D was administered to mice in the experiments. Act D is used in order to increase the cytotoxic effect of TNF-alpha in lung tissues. In this way, pulmonary epithelial, endothelial and mesenchymal cells were damaged in mouse lung by stimulating apoptosis, inflammation and oxidative stress. TNF-alpha. Act D and especially the combination of TNF-alpha/Act D cause the damage in alveolar wall of mice lung; it reduces the tissue factor (TF) and sodium-potassium ATPase (Na-K-ATPase) activities while stimulating apoptosis in pulmonary endotheliaL % epithelial cells, myeloperoxidase (MPO) activity in tissue and oxidative stress.
(§3) In this study, 8-10 months male BALB/c mice were used. […]

[8] = test system: apoptotic cells in the lung (alveolar areas); test: TUNEL apoptotic index in alveolar area of lung; type: in vivo, mouse; settings: male BALB/c mice, teduglutide 200 μg/kg s.c. every 12 hours for 10 days, TNF-alpha 15 μg/kg i.p., Act D 800 μg/kg i.p.
Procedure: as §1, §2
TUNEL (Terminal deoxynucleotidyl transferase-mediated dUTP-nick end labeling assay) method was used to identify apoptotic cells in the lung. In this method, left lung sections fixed with 10% neutral formalin for 24 hours were used. Lung sections in thickness of 5 μm were treated with proteinase K (20 ug/ml) following rehydratation, and then endogenous peroxidase activity was blocked with 3% H2O2.
Marking step was carried out with commercially available ApopTag Plus Peroxidase kit (Millipore). The reaction in apoptotic cells was developed with […]. Following this process, cell nuclei were made visible in staining with methylene green. Mice breast tissue was used as positive control. […] TUNEL positive cells in the lung were analyzed under light microscope at 400× magnification. The apoptotic index value was calculated as a percentage of apoptotic cells in total number of cells.

[9] = test system: type II pneumocytes; test: Type II pneumocyte count (Pro-SPC immunostaining) in alveolar epithelium; type: in vivo, mouse; settings: male BALB/c mice, Pro-SPC immunoreactive cells in total number of cells, same dosing groups
Procedure: as §3
Strep-ABC immunostaining method was used in order to determine proliferative cells in the alveolar area. […] Furthermore, since it is known that type II pneumocytes give new ones to replace type I and type II pneumocytes which die or lose function in the damaged alveolar epithelium, the number of type II pneumocytes in the alveolar area were analyzed in the experimental groups. […] Proliferation index and number of type II pneumocytes in the alveolar area were calculated as ratio of immunoreactive cells in total number of cells, and the value was expressed as %. […]

[10] = test system: GSH (glutathione); test: GSH level in lung homogenate (Beutler method); type: in vivo, mouse; settings: lung tissue, male BALB/c mice, Mean ± SD, same dosing groups
[11] = test system: lipid peroxidation (LPO); test: Lipid peroxidation (LPO) level in lung homogenate; type: in vivo, mouse; settings: lung tissue, male BALB/c mice, Mean ± SD, same dosing groups
[12] = test system: myeloperoxidase (MPO); test: Myeloperoxidase activity in lung tissue; type: in vivo, mouse; settings: male BALB/c mice, Mean ± SD, same dosing groups
[13] = test system: xanthine oxidase (XO); test: Xanthine oxidase activity in lung tissue; type: in vivo, mouse; settings: male BALB/c mice, Mean ± SD, same dosing groups
[14] = test system: patients having intestinal damage with short bowel syndrome; settings: cited from earlier work
[15] = test system: patients with short bowel syndrome; settings: s.c. 0.05 or 0.10 mg/kg/day; cited from earlier work
[16] = test system: patients with short bowel syndrome; settings: 11 patients with short bowel syndrome, s.c. 0.4 mg 3 times a day, 13, 26, 52 weeks; cited from earlier work
[17] = humans, short bowel syndrome, teduglutide s.c. 0.05 or 0.10 mg/kg/day, 52 weeks

Molecule	caspase-3 index in alveolar areas in mice [1] [%]	CAT [2]	SOD [3]	GPx [4]	Na^+K^+ATPase [5]	TF [6]	apoptotic index in alveolar areas in mice [8]	GSH [10]	LPO [11]	further results
Cc1c2oc3c(C)ccc(C(=O)N[C@@H]4C(=O)N[C@H](C(C)C)C(=O)N5CCC[C@H]5C(=O)N(C)CC(=O)N(C)[C@@H](C(C)C)C(=O)O[C@@H]4C)c3nc-2c(C(=O)N[C@@H]2C(=O)N[C@H](C(C)C)C(=O)N3CCC[C@H]3C(=O)N(C)CC(=O)N(C)[C@@H](C(C)C)C(=O)O[C@@H]2C)c(N)c1=O [Act D, Actinomycin D] (I: T[dV]P[Sar][NMeV] / II: T[dV]P[Sar][NMeV]; ester I:1-I:C, II:1-II:C; linker I:N-II:N via Actinocin(9to1))	0.02±0.005	29.76 ± 4.34^b U/mg protein	8.21 ± 2.29^g U/mg protein	473.28 ± 78.26^c U/g protein	3.63 ± 1.13^a nmol Pi/mg protein/h	50.50 ± 8.06^d sec	–	–	–	–
CC[C@H](C)[C@H](NC(=O)[C@H](Cc1ccccc1)NC(=O)[C@H](CC(=O)O)NC(=O)[C@H](CCCNC(=N)N)NC(=O)[C@H](C)NC(=O)[C@H](C)NC(=O)[C@H](CC(C)C)NC(=O)[C@H](CC(N)=O)NC(=O)[C@H](CC(=O)O)NC(=O)[C@H](CC(C)C)NC(=O)[C@@H](NC(=O)[C@@H](NC(=O)[C@H](CC(N)=O)NC(=O)[C@H](CCSC)NC(=O)[C@H](CCC(=O)O)NC(=O)[C@H](CC(=O)O)NC(=O)[C@H](CO)NC(=O)[C@H](Cc1ccccc1)NC(=O)[C@H](CO)NC(=O)CNC(=O)[C@H](CC(=O)O)NC(=O)CNC(=O)[C@@H](N)Cc1c[nH]cn1)[C@@H](C)O)[C@@H](C)CC)C(=O)N[C@@H](CC(N)=O)C(=O)N[C@@H](Cc1c[nH]c2ccccc12)C(=O)N[C@@H](CC(C)C)C(=O)N[C@H](C(=O)N[C@@H](CCC(N)=O)C(=O)N[C@H](C(=O)N[C@@H](CCCCN)C(=O)N[C@H](C(=O)N[C@H](C(=O)N[C@@H](CC(=O)O)C(=O)O)[C@@H](C)O)[C@@H](C)CC)[C@@H](C)O)[C@@H](C)CC [Teduglutide]	0.00±0.00	44.74 ± 7.52^d U/mg protein	7.36 ± 1.28^c U/mg protein	491.56 ± 171.49^b U/g protein	6.46 ± 1.13^a nmol Pi/mg protein/h	increases the TF activity	no significant change in apoptotic index	43.67 ± 8.25^c nmol GSH/mg protein	5.31 ± 1.71^b nmol MDA/mg protein	structure of alveolar wall / alveolar epithelium under light microscope [7]: alveoli were in better condition; caspase-3 index in alveolar areas in mice ([1]; listed as teduglutide): decreased significantly in individuals previously treated with teduglutide to which TNF-alpha/Act D was administered; type II pneumocytes in alveolar epithelium of mouse lung [9]: 16.65±1.13%; type II pneumocytes in alveolar epithelium of mouse lung ([9]; listed as teduglutide): significant decrease in type II pneumocyte number; GSH ([10]; listed as teduglutide): increased significantly; MPO [12]: 88.93 ± 30.32^g mU/g tissue; XO ([13]; listed as Tedoglutide): 17.46 ± 3.16^a U/mg protein; TF ([6]; listed as Tedoglutide): 47.28 ± 9.91^d sec; reliability of long term use ([14]; 52 patients, s.c. 0.05 or 0.10 mg/kg/day for 52 weeks): reliable for long term use in humans; adverse effect: abdominal pain [14, 17]: 25%; adverse effect: headache [14, 17]: 35%; adverse effect: nausea [14, 17]: 31%; liver function tests (AST, ALT, ALP) and renal function tests (creatinine, urea, bilirubin, glomerular filtration speed) [15]: improvement in liver function tests
TNF-α	0.08±0.005	42.44 ± 5.79^a U/mg protein	6.99 ± 2.57^f U/mg protein	453.86 ± 52.35^c U/g protein	3.96 ± 0.71^a nmol Pi/mg protein/h	49.08 ± 10.40^d sec	0.41±0.04%	10.16 ± 2.66^a nmol GSH/mg protein	4.51 ± 0.50^b nmol MDA/mg protein	apoptotic index in alveolar areas in mice ([8]; listed as TNF-alpha): no significant change in apoptotic index; GSH ([10]; listed as TNF-alpha): increased significantly; LPO ([11]; listed as TNF-alpha): increased significantly; MPO ([12]; listed as TKF-α): 193.80 ± 31.28^c mU/g tissue; MPO ([12]; listed as TNF-alpha): increased significantly; XO [13]: 21.53 ± 3.28^a U/mg protein; XO ([13]; listed as TNF-alpha): increased significantly
human GLP-2: Human glucagon like peptide 2, 33 amino acid sequence (SEQUENCE ID No. 1) (HADGSFSDEMNTILDNLAARDFINWLIQTKIT; listed as Homo sapiens)	–	–	–	–	–	–	–	–	–	intestinal morphology, absorption, renal functions, bone mineral density and muscle functions [16]: does not change
